Experimental data reported in PubChem BioAssay AID1963984 (Molecular Pharmacology Branch, DTP, NCI, 2024).

Tested on: 233499-124-R-J3-PDC spheroids with HUVEC/MSC, viability
Test: Anticancer human tumor 233499-124-R-J3-PDC patient-derived colon adenocarcinoma cell line growth inhibition [PI3K]
Conditions: for IC50: curve of first compound; for viability, T/C: stronger effect = lower value
How it was run: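 Spheroid viability read-out. Co-cultures contained the tumor line plus HUVEC and human MSCs. Each agent was paired with a PI3K inhibitor (inavolisib, alpelisib, duvelisib, copanlisib) across half-log dilutions starting at clinical Cmax, or at 10 microM when Cmax was unknown.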

[1] = second compound 0.0316 µM, first compound 0.0316 µM
[2] = second compound 0.0316 µM, first compound 0.1 µM
[3] = second compound 0.0316 µM, first compound 0.316 µM
[4] = second compound 0.0316 µM, first compound 1 µM
[5] = second compound 0.1 µM, first compound 0.0316 µM
[6] = second compound 0.1 µM, first compound 0.1 µM
[7] = second compound 0.1 µM, first compound 0.316 µM
[8] = second compound 0.1 µM, first compound 1 µM
[9] = second compound 0.316 µM, first compound 0.0316 µM
[10] = second compound 0.316 µM, first compound 0.1 µM
[11] = second compound 0.316 µM, first compound 0.316 µM
[12] = second compound 0.316 µM, first compound 1 µM
[13] = second compound 1 µM, first compound 0.0316 µM
[14] = second compound 1 µM, first compound 0.1 µM
[15] = second compound 1 µM, first compound 0.316 µM
[16] = second compound 1 µM, first compound 1 µM
[17] = second compound 3.16 µM, first compound 0.0316 µM
[18] = second compound 3.16 µM, first compound 0.1 µM
[19] = second compound 3.16 µM, first compound 0.316 µM
[20] = second compound 3.16 µM, first compound 1 µM
[21] = second compound 10 µM, first compound 0.0316 µM
[22] = second compound 10 µM, first compound 0.1 µM
[23] = second compound 10 µM, first compound 0.316 µM
[24] = second compound 10 µM, first compound 1 µM
[25] = second compound 0.0316 µM, first compound 0.00316 µM
[26] = second compound 0.0316 µM, first compound 0.01 µM
[27] = second compound 0.1 µM, first compound 0.00316 µM
[28] = second compound 0.1 µM, first compound 0.01 µM
[29] = second compound 0.316 µM, first compound 0.00316 µM
[30] = second compound 0.316 µM, first compound 0.01 µM
[31] = second compound 1 µM, first compound 0.00316 µM
[32] = second compound 1 µM, first compound 0.01 µM
[33] = second compound 3.16 µM, first compound 0.00316 µM
[34] = second compound 3.16 µM, first compound 0.01 µM
[35] = second compound 10 µM, first compound 0.00316 µM
[36] = second compound 10 µM, first compound 0.01 µM
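Also: spheroids exposed to agents for seven days before readout.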
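For viability, T/C in this document: percent viability relative to DMSO vehicle control taken as 100%.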

`CC(C)NCC(C(=O)N1CCN(c2ncnc3c2C(C)CC3O)CC1)c1ccc(Cl)cc1` (stereo unspecified) + CC(Nc1ncnc2nc[nH]c12)c1cc2cccc(Cl)c2c(=O)n1-c1ccccc1 was tested, and the IC50 (second compound 0.0316 µM) was greater than 10000 nM, the IC50 (second compound 0.1 µM) was greater than 10000 nM and the IC50 (second compound 0.316 µM) was greater than 10000 nM. It also gave an IC50 (second compound 1 µM) greater than 10000 nM, an IC50 (second compound 3.16 µM) greater than 10000 nM and an IC50 (second compound 10 µM) greater than 10000 nM. It also gave a viability, T/C [1] of 86.1%, a viability, T/C [2] of 100% and a viability, T/C [3] of 94.8%. It also gave a viability, T/C [4] of 94.8%, a viability, T/C (second compound 0.0316 µM, first compound 3.16 µM) of 77.1% and a viability, T/C (second compound 0.0316 µM, first compound 10 µM) of 74.5%. It also gave a viability, T/C [5] of 93.3%, a viability, T/C [6] of 96.7% and a viability, T/C [7] of 77.6%. The viability, T/C [8] was 83.8%, the viability, T/C (second compound 0.1 µM, first compound 3.16 µM) was 110% and the viability, T/C (second compound 0.1 µM, first compound 10 µM) was 87.4%. The viability, T/C [9] was 95.7%, the viability, T/C [10] was 102% and the viability, T/C [11] was 95.8%. For the same compound, the viability, T/C [12] was 87.8%, the viability, T/C (second compound 0.316 µM, first compound 3.16 µM) was 86.9% and the viability, T/C (second compound 0.316 µM, first compound 10 µM) was 71.9%. The viability, T/C [13] was 91.1%, the viability, T/C [14] was 88.3% and the viability, T/C [15] was 88.1%. For the same compound, the viability, T/C [16] was 106%, the viability, T/C (second compound 1 µM, first compound 3.16 µM) was 82.1% and the viability, T/C (second compound 1 µM, first compound 10 µM) was 65.2%. It also gave a viability, T/C [17] of 91%, a viability, T/C [18] of 93.6% and a viability, T/C [19] of 96.9%. It also gave a viability, T/C [20] of 85.7%, a viability, T/C (second compound 3.16 µM, first compound 3.16 µM) of 81.1% and a viability, T/C (second compound 3.16 µM, first compound 10 µM) of 77.5%. For the same compound, the viability, T/C [21] was 78%, the viability, T/C [22] was 89.9% and the viability, T/C [23] was 87.4%. The viability, T/C [24] was 68.8%, the viability, T/C (second compound 10 µM, first compound 3.16 µM) was 99.5% and the viability, T/C (second compound 10 µM, first compound 10 µM) was 88%.

`CCN1CCN(Cc2ccc(Nc3ncc(F)c(-c4cc(F)c5nc(C)n(C(C)C)c5c4)n3)nc2)CC1` + CC(Nc1ncnc2nc[nH]c12)c1cc2cccc(Cl)c2c(=O)n1-c1ccccc1 was tested, and the IC50 (second compound 0.0316 µM) was 916 nM, the IC50 (second compound 0.1 µM) was 832 nM and the IC50 (second compound 0.316 µM) was 788 nM. The IC50 (second compound 1 µM) was 963 nM, the IC50 (second compound 3.16 µM) was 214 nM and the IC50 (second compound 10 µM) was 193 nM. The viability, T/C [25] was 102%, the viability, T/C [26] was 93.5% and the viability, T/C [1] was 83.2%. It also gave a viability, T/C [2] of 70.1%, a viability, T/C [3] of 61.5% and a viability, T/C [4] of 48.5%. It also gave a viability, T/C [27] of 101%, a viability, T/C [28] of 108% and a viability, T/C [5] of 86.7%. It also gave a viability, T/C [6] of 73.8%, a viability, T/C [7] of 61.4% and a viability, T/C [8] of 47%. The viability, T/C [29] was 97.1%, the viability, T/C [30] was 87.3% and the viability, T/C [9] was 85.4%. The viability, T/C [10] was 84.2%, the viability, T/C [11] was 66.3% and the viability, T/C [12] was 45.2%. It also gave a viability, T/C [31] of 104%, a viability, T/C [32] of 90.8% and a viability, T/C [13] of 76%. For the same compound, the viability, T/C [14] was 83.8%, the viability, T/C [15] was 54.3% and the viability, T/C [16] was 50.8%. For the same compound, the viability, T/C [33] was 80.2%, the viability, T/C [34] was 79.2% and the viability, T/C [17] was 95.2%. The viability, T/C [18] was 72.6%, the viability, T/C [19] was 39% and the viability, T/C [20] was 32.8%. For the same compound, the viability, T/C [35] was 75.9%, the viability, T/C [36] was 73.7% and the viability, T/C [21] was 90.8%. For the same compound, the viability, T/C [22] was 57%, the viability, T/C [23] was 51% and the viability, T/C [24] was 38.4%.

For `Cn1ncnc1[C@H]1c2n[nH]c(=O)c3cc(F)cc(c23)N[C@@H]1c1ccc(F)cc1` + CC(Nc1ncnc2nc[nH]c12)c1cc2cccc(Cl)c2c(=O)n1-c1ccccc1, the IC50 (second compound 0.0316 µM) was greater than 100 nM, the IC50 (second compound 0.1 µM) was greater than 100 nM and the IC50 (second compound 0.316 µM) was greater than 100 nM. It also gave an IC50 (second compound 1 µM) greater than 100 nM, an IC50 (second compound 3.16 µM) greater than 100 nM and an IC50 (second compound 10 µM) greater than 100 nM. For the same compound, the viability, T/C (second compound 0.0316 µM, first compound 0.000316 µM) was 90.9%, the viability, T/C (second compound 0.0316 µM, first compound 0.001 µM) was 82% and the viability, T/C [25] was 84.9%. The viability, T/C [26] was 87.8%, the viability, T/C [1] was 75.4% and the viability, T/C [2] was 69%. For the same compound, the viability, T/C (second compound 0.1 µM, first compound 0.000316 µM) was 99.7%, the viability, T/C (second compound 0.1 µM, first compound 0.001 µM) was 106% and the viability, T/C [27] was 70.9%. It also gave a viability, T/C [28] of 73.4%, a viability, T/C [5] of 74.1% and a viability, T/C [6] of 72.2%. It also gave a viability, T/C (second compound 0.316 µM, first compound 0.000316 µM) of 90%, a viability, T/C (second compound 0.316 µM, first compound 0.001 µM) of 94.7% and a viability, T/C [29] of 70.3%. The viability, T/C [30] was 76.7%, the viability, T/C [9] was 64.9% and the viability, T/C [10] was 70%. It also gave a viability, T/C (second compound 1 µM, first compound 0.000316 µM) of 85.7%, a viability, T/C (second compound 1 µM, first compound 0.001 µM) of 77.8% and a viability, T/C [31] of 89%. It also gave a viability, T/C [32] of 84.2%, a viability, T/C [13] of 77.7% and a viability, T/C [14] of 54.1%. It also gave a viability, T/C (second compound 3.16 µM, first compound 0.000316 µM) of 79.9%, a viability, T/C (second compound 3.16 µM, first compound 0.001 µM) of 85.9% and a viability, T/C [33] of 90.3%. For the same compound, the viability, T/C [34] was 82.4%, the viability, T/C [17] was 76.8% and the viability, T/C [18] was 76.5%. For the same compound, the viability, T/C (second compound 10 µM, first compound 0.000316 µM) was 89.7%, the viability, T/C (second compound 10 µM, first compound 0.001 µM) was 71.3% and the viability, T/C [35] was 85.2%. It also gave a viability, T/C [36] of 92.3%, a viability, T/C [21] of 66.9% and a viability, T/C [22] of 72.2%.
